Test results taken from patent publication US8354414B2, “Substituted bicyclic pyrimidines” (Cephalon, Inc, priority 2006, dated 2013).
Like-named read-outs stand apart in the source and are kept apart here.

Columns and labels:
CDK5/GST-p25 = target: T1, CDK5/GST-p25 (Homo sapiens, UniProt Q00535); test: Inhibition of CDK5/GST-p25 kinase activity (ELISA with time-resolved fluorescence readout); assay type: biochemical
T1 construct: The final construct, encoding for full-length human CDK5; made in house; host or cells: Sf21 insect cells (baculovirus co-infection)
Outline: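 The substrate, GST-Rb(773-928), was immobilised on plates and phosphorylated for 20 min at 37 °C by 2 ng/ml CDK5/GST-p25 in HEPES pH 7.2 with 10 µM ATP and 10 mM MgCl2. Both proteins were human and co-expressed in insect cells. Ser-780 phosphorylation was read by europium time-resolved fluorescence and converted to IC50.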

His6-GSK-3β = target: T2, His6-GSK-3β (Homo sapiens, UniProt P49841); test: Inhibition of His6-GSK-3β kinase activity (ELISA-based format, time-resolved fluorescence readout); assay type: biochemical; settings: for IC50: read-out: GSK3β IC50
T2 construct: made in house; host or cells: Sf21 insect cells (baculovirus)
Outline: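 Plate-bound recombinant GST-Rb substrate was phosphorylated for 30 min at 37° C by baculovirus-expressed His6-GSK-3β (200 ng/ml) at 20 μM ATP, 10 mM MgCl2, 2.5% DMSO. Europium time-resolved fluorescence of anti-phospho-Ser780 Rb signal gave inhibition, fitted to IC50.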

T2 sequence (P49841 2-419): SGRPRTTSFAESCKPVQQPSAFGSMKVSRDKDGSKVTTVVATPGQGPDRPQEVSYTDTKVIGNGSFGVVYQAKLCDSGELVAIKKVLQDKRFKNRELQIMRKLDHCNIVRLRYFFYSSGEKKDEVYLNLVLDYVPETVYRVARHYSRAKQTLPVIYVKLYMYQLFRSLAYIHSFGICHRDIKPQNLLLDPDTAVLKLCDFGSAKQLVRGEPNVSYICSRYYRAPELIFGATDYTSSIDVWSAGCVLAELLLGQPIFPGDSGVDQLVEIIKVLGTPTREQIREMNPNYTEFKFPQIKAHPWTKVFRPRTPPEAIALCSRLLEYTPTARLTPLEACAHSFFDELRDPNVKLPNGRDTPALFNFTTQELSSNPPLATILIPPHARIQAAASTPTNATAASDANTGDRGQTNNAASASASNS
T1 sequence (Q00535 whole entry): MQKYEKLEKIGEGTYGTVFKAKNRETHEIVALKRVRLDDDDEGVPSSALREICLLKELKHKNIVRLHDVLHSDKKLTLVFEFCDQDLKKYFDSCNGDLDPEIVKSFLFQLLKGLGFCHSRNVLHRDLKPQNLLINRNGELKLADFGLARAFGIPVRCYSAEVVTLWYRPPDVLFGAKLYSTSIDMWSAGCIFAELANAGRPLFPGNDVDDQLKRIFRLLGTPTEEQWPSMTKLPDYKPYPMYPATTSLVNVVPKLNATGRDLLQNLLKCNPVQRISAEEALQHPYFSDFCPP
T1 sequence (Q15078 108-307 partner limits assumed): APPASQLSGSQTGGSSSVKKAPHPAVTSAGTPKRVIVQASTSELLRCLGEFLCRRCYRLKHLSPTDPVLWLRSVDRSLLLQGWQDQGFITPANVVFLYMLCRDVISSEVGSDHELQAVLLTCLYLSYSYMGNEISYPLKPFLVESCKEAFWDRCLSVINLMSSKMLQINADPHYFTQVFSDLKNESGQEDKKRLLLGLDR

| Compound | IC50 (CDK5/GST-p25; class symbols) [nM] | IC50 (His6-GSK-3β; class symbols) [nM] | IC50 (CDK5/GST-p25; numeric bounds) [nM] | IC50 (His6-GSK-3β; numeric bounds) [nM] | GSK3β % @10 μM (His6-GSK-3β; @10 μM) [% @10 μM] |
| --- | --- | --- | --- | --- | --- |
| N#Cc1ccc2c(c1)C(c1nc(NCc3ccncc3)nc3c1CCC3)C(=O)N2 (centres unmarked) [Example 347, 2-Oxo-3-{2-[(pyridin-4-ylmethyl)-amino]-6,7-dihydro-5H-cyclopentapyrimidin-4-yl}-2,3-dihydro-1H-indole-5-carbonitrile] | 300 to 3000 | 300 to 3000 | – | – | – |
| CN(C)CCOc1nc(C2C(=O)Nc3ccc(C#N)cc32)c2cn(C3CCCC3)nc2n1 (centres unmarked) [Example 122, 3-[2-cyclopentyl-6-(2-dimethylamino-ethoxy)-2H-pyrazolo[3,4-d]pyrimidin-4-yl]-2-oxo-2,3-dihydro-1H-indole-5-carbonitrile] | > 10000 | < 300 | – | – | – |
| O=C1Nc2ccc(F)cc2C1c1nc(NCc2ccccn2)nc2c1CCC2 (centres unmarked) [Example 322, 5-Fluoro-3-{2-[(pyridin-2-ylmethyl)-amino]-6,7-dihydro-5H-cyclopentapyrimidin-4-yl}-1,3-dihydro-indol-2-one] | – | > 10000 | > 3000 | – | – |
| O=C1Nc2ccc(F)cc2C1c1nc(Cl)nc2c1CCC2 (centres unmarked) [Example 315, 3-(2-Chloro-6,7-dihydro-5H-cyclopentapyrimidin-4-yl)-5-fluoro-1,3-dihydro-indol-2-one] | > 10000 | > 10000 | – | – | – |
| CCCn1cc2c(C3C(=O)Nc4ccc(Br)cc43)nc(NC[C@H]3CCCO3)nc2n1 (stereo partly drawn) [Example 366, 5-Bromo-3-(2-propyl-6-{[(R)-1-(tetrahydro-furan-2-yl)methyl]-amino}-2H-pyrazolo[3,4-d]pyrimidin-4-yl)-1,3-dihydro-indol-2-one] | < 300 | < 300 | – | – | – |
| COc1ccc(Nc2nc3c(c(C4C(=O)Nc5ccc(C#N)cc54)n2)CCC3)cn1 (centres unmarked) [Example 352, 3-[2-(6-Methoxy-pyridin-3-ylamino)-6,7-dihydro-5H-cyclopentapyrimidin-4-yl]-2-oxo-2,3-dihydro-1H-indole-5-carbonitrile] | > 10000 | > 10000 | – | – | – |
| 5-Chloro-3-[2-cyclopentyl-6-(2-diethylamino-ethoxy)-2H-pyrazolo [3,4-d]pyrimidin-4-yl]-1,3-dihydro-indol-2-one [Example 141] | > 10000 | < 300 | – | – | – |
| N#Cc1ccc2c(c1)C(c1nc(NCc3ccc(C(F)(F)F)nc3)nc3nn(C4CCCC4)cc13)C(=O)N2 (centres unmarked) [Example 173, 3-{2-Cyclopentyl-6-[(6-trifluoromethyl-pyridin-3-ylmethyl)-amino]-2H-pyrazolo [3,4-d]pyrimidin-4-yl}-2-oxo-2,3-dihydro-1H-indole-5-carbonitrile] | < 300 | < 300 | – | – | – |
| N#Cc1ccc2c(c1)C(c1nc(Nc3cccnc3)nc3nn(C4CCCC4)cc13)C(=O)N2 (centres unmarked) [Example 169, 3-[2-Cyclopentyl-6-(pyridin-3-ylamino)-2H-pyrazolo [3,4-d]pyrimidin-4-yl]-2-oxo-2,3-dihydro-1H-indole-5-carbonitrile] | > 10000 | < 300 | – | – | – |
| O=C1Nc2ccc(Br)cc2C1c1nc(NCc2ccccn2)nc2nn(C3CCCC3)cc12 (centres unmarked) [Example 179, 5-Bromo-3-{2-cyclopentyl-6-[(pyridin-2-ylmethyl)-amino]-2H-pyrazolo [3,4-d]pyrimidin-4-yl}-1,3-dihydro-1H-indol-2-one] | 300 to 3000 | < 300 | – | – | – |
| CNCCCNc1nc(C2C(=O)Nc3ccc(Br)cc32)c2cn(C)nc2n1 (centres unmarked) [Example 306, 5-Bromo-3-[2-methyl-6-(3-methylamino-propylamino)-2H-pyrazolo [3,4-d]pyrimidin-4-yl]-1,3-dihydro-indol-2-one] | < 300 | 300 to 3000 | – | – | – |
| CCCn1cc2c(C3C(=O)Nc4ccc(Br)cc43)nc(NC[C@@H]3CCCO3)nc2n1 (stereo partly drawn) [Example 367, 5-Bromo-3-(2-propyl-6-{[(S)-1-(tetrahydro-furan-2-yl)methyl]-amino}-2H-pyrazolo [3,4-d]pyrimidin-4-yl)-1,3-dihydro-indol-2-one] | < 300 | < 300 | – | – | – |
| CNc1nc(C2C(=O)Nc3ccc(C#N)cc32)c2cn(C3CCCC3)nc2n1 (centres unmarked) [Example 115, 3-(2-cyclopentyl-6-methylamino-2H-pyrazolo[3,4-d]pyrimidin-4-yl)-2-oxo-2,3-dihydro-1H-indole-5-carbonitrile] | < 300 | < 300 | – | – | – |
| N#Cc1ccc2c(c1)C(c1nc(NCCc3ccncc3)nc3nn(C4CCCC4)cc13)C(=O)N2 (centres unmarked) [Example 126, 3-(2-cyclopentyl-6-(2-pyridin-4-yl-ethylamino)-2H-pyrazolo [3,4-d]pyrimidin-4-yl)-2-oxo-2,3-dihydro-1H-indole-5-carbonitrile] | < 300 | < 300 | – | – | – |
| CN(C)CCNc1nc(C2C(=O)Nc3ccc(Br)cc32)c2cn(C)nc2n1 (centres unmarked) [Example 359, 5-Bromo-3-[6-(2-dimethylamino-ethylamino)-2-methyl-2H-pyrazolo[3,4-d]pyrimidin-4-yl]-1,3-dihydro-indol-2-one] | 300 to 3000 | 300 to 3000 | – | – | – |
| CCCn1cc2c(C3C(=O)Nc4ccc(Br)cc43)nc(NC[C@@H](O)CO)nc2n1 (stereo partly drawn) [Example 368, 5-Bromo-3-[6-((R)-2,3-dihydroxy-propylamino)-2-propyl-2H-pyrazolo[3,4-d]pyrimidin-4-yl]-1,3-dihydro-indol-2-one] | < 300 | < 300 | – | – | – |
| CN(C)CCCNc1nc2c(c(C3C(=O)Nc4ccc(Br)cc43)n1)CCC2 (centres unmarked) [Example 335, 5-Bromo-3-[2-(3-dimethylamino-propylamino)-6,7-dihydro-5H-cyclopentapyrimidin-4-yl]-1,3-dihydro-indol-2-one] | – | – | > 3000 | > 3000 | – |
| C=CCNc1nc(C2C(=O)Nc3ccc(Br)cc32)c2cn(CCC)nc2n1 (centres unmarked) [Example 193, 3-(6-Allylamino-2-propyl-2H-pyrazolo[3,4-d]pyrimidin-4-yl)-5-bromo-1,3-dihydro-indol-2-one] | < 300 | < 300 | – | – | – |
| N#Cc1ccc2c(c1)C(c1nc(Nc3ccc(N4CCS(=O)(=O)CC4)cc3)nc3nn(C4CCCC4)cc13)C(=O)N2 (centres unmarked) [Example 135, 3-{2-Cyclopentyl-6-[4-(1,1-dioxo-1λ^6-thiomorpholin-4-yl)-phenylamino]-2H-pyrazolo[3,4-d]pyrimidin-4-yl}-2-oxo-2,3-dihydro-1H-indole-5-carbonitrile] | > 10000 | < 300 | – | – | – |
| N#Cc1ccc2c(c1)C(c1nc(N3CCN(CCCc4ccccc4)CC3)nc3nn(C4CCCC4)cc13)C(=O)N2 (centres unmarked) [Example 128, 3-{2-cyclopentyl-6-[4-(3-phenyl-propyl)-piperazin-1-yl]-2H-pyrazolo[3,4-d]pyrimidin-4-yl}-2-oxo-2,3-dihydro-1H-indole-5-carbonitrile] | > 10000 | < 300 | – | – | – |
| CCCn1cc2c(C3C(=O)Nc4ccc(C#N)cc43)nc(NCc3cccnc3)nc2n1 (centres unmarked) [Example 184, 2-Oxo-3-{2-propyl-6-[(pyridin-3-ylmethyl)-amino]-2H-pyrazolo[3,4-d]pyrimidin-4-yl}-2,3-dihydro-1H-indole-5-carbonitrile] | < 300 | < 300 | – | – | – |
| O=C1Nc2ccc(Br)cc2C1c1nc(Cl)nc2nn(C3CCCC3)cc12 (centres unmarked) [Example 182, 5-Bromo-3-(6-chloro-2-cyclopentyl-2-H-pyrazolo[3,4-d]pyrimidin-4-yl)-1,3-dihydro-indol-2-one] | > 10000 | – | – | > 3000 | – |
| N#Cc1ccc2c(c1)C(c1nc(NCCc3ccccn3)nc3c1CCC3)C(=O)N2 (centres unmarked) [Example 346, 2-Oxo-3-[2-(2-pyridin-2-yl-ethylamino)-6,7-dihydro-5H-cyclopentapyrimidin-4-yl]-2,3-dihydro-1H-indole-5-carbonitrile] | 300 to 3000 | 300 to 3000 | – | – | – |
| N#Cc1ccc2c(c1)C(c1nc(NCCc3ccncc3)nc3c1CCC3)C(=O)N2 (centres unmarked) [Example 345, 2-Oxo-3-[2-(2-pyridin-4-yl-ethylamino)-6,7-dihydro-5H-cyclopentapyrimidin-4-yl]-2,3-dihydro-1H-indole-5-carbonitrile] | > 10000 | – | – | – | 67 |
| CCCCN1CCC(CNc2nc(C3C(=O)Nc4ccc(Cl)cc43)c3cn(C4CCCC4)nc3n2)CC1 (centres unmarked) [Example 275, 3-{6-[(1-Butyl-piperidin-4-ylmethyl)-amino]-2-cyclopentyl-2H-pyrazolo[3,4-d]pyrimidin-4-yl}-5-chloro-1,3-dihydro-indol-2-one] | > 10000 | < 300 | – | – | – |
| N#Cc1ccc2c(c1)C(c1nc(NCCN3CCCC3)nc3nn(C4CCCC4)cc13)C(=O)N2 (centres unmarked) [Example 136, 3-[2-cyclopentyl-6-(2-pyrrolidin-1-yl-ethylamino)-2H-pyrazolo[3,4-d]pyrimidin-4-yl]-2-oxo-2,3-dihydro-1H-indole-5-carbonitrile] | – | < 300 | > 3000 | – | – |
| COCCNc1nc(C2C(=O)Nc3ccc(C#N)cc32)c2cn(C3CCCC3)nc2n1 (centres unmarked) [Example 174, 3-[2-Cyclopentyl-6-(2-methoxy-ethylamino)-2H-pyrazolo [3,4-d]pyrimidin-4-yl]-2-oxo-2,3-dihydro-1H-indole-5-carbonitrile] | < 300 | < 300 | – | – | – |
| CCCn1cc2c(C3C(=O)Nc4ccc(Br)cc43)nc(NC[C@H](O)CO)nc2n1 (stereo partly drawn) [Example 364, 5-Bromo-3-[6-((S)-2,3-dihydroxy-propylamino)-2-propyl-2H-pyrazolo [3,4-d]pyrimidin-4-yl]-1,3-dihydro-indol-2-one] | < 300 | < 300 | – | – | – |
